Experimental findings from US6645966B2, “Treatment of malaria with farnesyl protein transferase inhibitors” (Schering Corporation, priority 2001, dated 2003) are described below.

Series [1] concerns P. falciparum (strain C10, partially chloroquine resistant strain). The series is described as follows: In Vitro Plasmodium falciparum Growth Inhibition Assay ([3H]-hypoxanthine uptake into infected erythrocytes). The series is classed as cell-based. To be noted: Erythrocyte. Here is the method:
The growth activity of P. falciparum was determined by measuring the uptake of the radiolabeled nucleic acid precursor [3H]-hypoxanthine from the media into infected erythrocytes by a method similar to that reported by Jomaa et al (1999). In this method human red blood cells (RBC) were infected with P. falciparum (strain C10, partially chloroquine resistant strain) to 0.4% parasitemia (0.4% of the RBC contain at least 1 parasite). The infected human RBC cells were adjusted to a hematocrit of 2% and 200 μl was plated into 96 well plates. DMSO solutions of inhibitors were added to the plates to make final concentrations of inhibitors from 20 μM to 0.2 μM and a final concentration of DMSO between 0.2 and 1%. The inhibitor-RBC solutions were incubated for 48 hours followed by the addition of [3H]-hypoxanthine to each well and further incubated for 24 hours. The incorporation of [3H]-hypoxanthine into the parasite DNA was measured by acid precipitating the nucleic acid content onto filters, washing the filters and counting the incorporated radioactivity in a scintillation counter.

Like-named read-outs stand apart in the source and are kept apart here.

Take `N#Cc1ccc(Cn2cncc2CCNC(=O)[C@H]2CN(Cc3ccncc3)CCN2C(=O)NC2CCCCC2)cc1`: the melting point (in general, the temperature, or range, at which the solid turns liquid) is 80 °C (dec.).
Same read-out and setting: under `Clc1ccc2c(c1)CCc1cccnc1C2N1CCC[C@H](Cn2ccnc2)C1` (single isomer, unassigned) stands 71 to 75 °C.
In the case of `CCN(CC)CCCC(C)Nc1ccnc2cc(Cl)ccc12` (stereo not shown) [chloroquine], in series [1] (read-out: ED50), the EC50 is 260 nM.
For the compound `O=CN(O)CCCP(=O)(O)O` [fosmidomycin], in series [1] (P. falciparum strain C10 in infected human RBC, 0.4% parasitemia, 48 hours incubation then [3H]-hypoxanthine for 24 hours, read-out: ED50 (the source's name)), the EC50 is 600 nM.
